Test results taken from article PMC7408396, “IPEC-J2 rMdr1a, a New Cell Line with Functional Expression of Rat P-glycoprotein Encoded by Rat Mdr1a for Drug Screening Purposes” (Pharmaceutics, 2020).
Each block holds one compound with its values, some of them ahead of it.

Key:
P-gp (human MDR1) = molecular target: T1, P-gp (human MDR1) (Homo sapiens, UniProt P08183); assay: Bidirectional transport across IPEC-J2 MDR1 cell monolayers; format: in vitro ADME; details: for Papp A→B at 120 min / Papp B→A at 120 min: pH 7.4, Figure 5, mean ± SEM; for Papp A→B at 120 min: read-out: apparent permeability A–B; for Papp B→A at 120 min: read-out: apparent permeability B–A; for efflux ratio at 120 min: pH 7.4, Figure 5 comparison series
T1 construct: expressed in transfected cells; host or cells: IPEC-J2 (porcine intestinal epithelial cells), previously established IPEC-J2 MDR1 line
Method: (§1) The cell monolayers were washed and pre-incubated in transport buffer consisting of 10 mM HEPES, 0.05% BSA and 0.038% sodium bicarbonate in HBSS pH 7.4 for 15 min at 37 °C on a shaking table (Unimax 2010, Heidolph, Schwabach, Germany) with a rotation of 75–90 rpm. The buffer was removed, and the transport experiments were initiated by the addition of donor solution containing radio-labelled compound in transport buffer in a concentration of 0.5 or 1 μ Ci/mL to either the apical or the basolateral chamber. […] Receiver samples were collected after 15, 30, 45, 60, 90 and 120 min from the basolateral (100 µL) or the apical chamber (50 µL), respectively.
(§2) Based on data from transport experiments, the apparent permeability coefficients (Papp) were calculated using Equation (1):(1) Papp = J/C0 = Qt/C0At where J denotes the steady-state flux (nmol·cm^−2·min^−1), C0 is the initial concentration in the donor compartment, A is the cross-sectional area of the permeable inserts (1.13 cm^2) and Qt represents the accumulated amount of drug in the receiver compartment at time t in minutes (corrected for the dilution arising from replacement of the sampled volume with blank transport buffer).

P-gp (rat Mdr1a) = assay: in vitro; details: for efflux ratio at 120 min: pH 7.4, efflux ratio, Figure 5 comparison series
human P-gp [1] = molecular target: T2, human P-gp (Homo sapiens, UniProt P08183); details: IPEC-J2 MDR1 cells overexpressing human P-gp; cited from earlier work
rat Mdr1a P-gp = details: IPEC-J2 rMdr1a monolayers
rat Mdr1a = test system: rat Mdr1a; set-up: method as in PMID 16779700; details: LLC-PK1 cells transfected with rat Mdr1a; cited from earlier work
human MDR1 = test system: human MDR1; set-up: method as in PMID 16779700; details: LLC-PK1 cells transfected with human MDR1; cited from earlier work
IPEC-J2 mock cells [2] = assay: Puromycin selection of IPEC-J2 mock cells; format: cell-based, porcine; details: 2 μg/mL puromycin
Method: (§3) The rat Mdr1a cDNA, codon-optimized for expression in Sus scrofa, was synthesized by Geneart (Regensburg, Germany) and inserted in the pcDNA3.1 (+) cloning vector under control of a cytomegalovirus (CMV) promoter (see Supplemental Figure S1) and purchased from Geneart (Regensburg, Germany). […] Cells were seeded on permeable Transwell® inserts (1.13 cm^2 surface area, 0.4 µm pore size) at a density of 4 × 10^4 cells/insert and cultured for 15–18 days (with culture medium change three times per week) prior to experimentation.

rMDR1a-transfected cells = assay: Puromycin selection of rMdr1a-transfected IPEC-J2 cells; format: cell-based, porcine; details: 2 μg/mL puromycin
Method: as §3

[3] = set-up: method as in PMID 27194478; details: murine / rodent animal models; cited from earlier work
human P-gp [4] = molecular target: T2, human P-gp; set-up: expressed in transfected cells; host or cells: IPEC-J2 (porcine intestinal epithelial cells), previously established IPEC-J2 MDR1 line; method as in PMID 27194478; details: MDCK II MDR1 cell monolayers; cited from earlier work
IPEC-J2 mock cells [5] = assay: Bidirectional transport across IPEC-J2 mock cell monolayers (empty pcDNA 3.1(+) vector); details: 0.4 µM zosuquidar, Supplemental Figure S2
mouse Mdr1a = test system: mouse Mdr1a; set-up: method as in PMID 17045309; details: mouse Mdr1a-transfected LLC-PK1 and MDCK monolayers; cited from earlier work
human P-gp [6] = molecular target: T2, human P-gp; set-up: expressed in transfected cells; method as in PMID 17045309; details: cell monolayers overexpressing human P-gp; cited from earlier work
[7] = test system: P-gp (rat Mdr1a and human MDR1); assay: in vitro; details: human, pH 7.4, apparent permeability values (span over both directions), A–B and B–A, across both IPEC-J2 rMdr1a and IPEC-J2 MDR1 monolayers
[8] = Bidirectional transport across IPEC-J2 wild-type (WT) cell monolayers; format: in vitro ADME, porcine; details: pig, pH 7.4, mean ± SEM
Method: as §1, §2

[9] = pH 7.4, apparent permeability A–B, IPEC-J2 rMdr1a monolayers, Figure 5, mean ± SEM

T2 sequence (P08183 whole entry): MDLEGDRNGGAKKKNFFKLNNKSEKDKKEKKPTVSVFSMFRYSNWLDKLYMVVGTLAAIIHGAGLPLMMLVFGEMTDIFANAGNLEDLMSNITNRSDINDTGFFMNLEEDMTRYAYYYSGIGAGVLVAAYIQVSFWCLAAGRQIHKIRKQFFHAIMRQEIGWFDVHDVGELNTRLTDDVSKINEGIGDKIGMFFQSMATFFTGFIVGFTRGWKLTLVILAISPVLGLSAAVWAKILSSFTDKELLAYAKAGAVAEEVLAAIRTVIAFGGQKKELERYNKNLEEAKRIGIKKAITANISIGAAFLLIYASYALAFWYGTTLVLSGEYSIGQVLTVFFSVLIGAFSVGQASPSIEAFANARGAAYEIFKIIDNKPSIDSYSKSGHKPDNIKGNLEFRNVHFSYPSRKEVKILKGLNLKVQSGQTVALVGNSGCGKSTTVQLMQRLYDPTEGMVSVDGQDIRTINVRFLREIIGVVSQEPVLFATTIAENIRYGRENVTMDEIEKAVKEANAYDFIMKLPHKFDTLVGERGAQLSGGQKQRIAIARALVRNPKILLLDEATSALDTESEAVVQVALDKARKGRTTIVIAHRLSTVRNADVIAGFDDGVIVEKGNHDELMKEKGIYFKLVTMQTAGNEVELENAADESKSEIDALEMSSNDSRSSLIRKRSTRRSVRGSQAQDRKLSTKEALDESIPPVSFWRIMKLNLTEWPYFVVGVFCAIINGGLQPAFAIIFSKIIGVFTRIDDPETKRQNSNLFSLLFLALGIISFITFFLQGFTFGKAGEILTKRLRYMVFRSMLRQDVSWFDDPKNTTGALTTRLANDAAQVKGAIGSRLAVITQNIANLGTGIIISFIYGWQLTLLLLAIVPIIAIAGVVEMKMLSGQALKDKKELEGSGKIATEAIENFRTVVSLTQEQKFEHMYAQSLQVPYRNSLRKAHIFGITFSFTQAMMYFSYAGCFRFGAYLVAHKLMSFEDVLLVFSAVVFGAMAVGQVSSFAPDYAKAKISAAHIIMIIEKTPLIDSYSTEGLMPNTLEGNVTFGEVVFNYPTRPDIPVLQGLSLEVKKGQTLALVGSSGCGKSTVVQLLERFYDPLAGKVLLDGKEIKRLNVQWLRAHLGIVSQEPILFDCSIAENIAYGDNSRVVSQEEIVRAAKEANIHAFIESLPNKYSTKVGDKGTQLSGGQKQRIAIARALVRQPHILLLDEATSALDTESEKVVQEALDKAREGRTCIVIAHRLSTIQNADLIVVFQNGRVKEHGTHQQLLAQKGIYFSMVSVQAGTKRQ
T1 sequence (P08183 whole entry): as above

SMILES: Cc1cc2c(s1)Nc1ccccc1N=C2N1CCN(C)CC1 [olanzapine]
Papp A→B at 120 min (P-gp (human MDR1)): 23 ± 4 ×10⁻⁶ cm/s | Papp B→A at 120 min (P-gp (human MDR1)): 40 ± 3 ×10⁻⁶ cm/s | Papp A→B at 120 min (P-gp (rat Mdr1a); pH 7.4): 24 ± 3 ×10⁻⁶ cm/s | Papp B→A at 120 min (P-gp (rat Mdr1a); pH 7.4): 44 ± 3 ×10⁻⁶ cm/s

SMILES: CN(C)CCCC1(c2ccc(F)cc2)OCc2cc(C#N)ccc21 (stereo not shown) [citalopram]
P-gp substrate identification (human P-gp [1]): P-gp substrates

Papp A→B at 120 min (P-gp (human MDR1)): 1.5 ± 0.2 ×10⁻⁶ cm/s | Papp B→A at 120 min (P-gp (human MDR1)): 19 ± 6 ×10⁻⁶ cm/s | efflux ratio at 120 min (P-gp (human MDR1)): 12.4 | efflux ratio (rat Mdr1a P-gp; Figure 5 comparison series): 13 | Papp B→A at 120 min (P-gp (rat Mdr1a); pH 7.4): 20 ± 5 ×10⁻⁶ cm/s | Papp A→B at 120 min (P-gp (rat Mdr1a); [9]): 1.6 ± 0.2 ×10⁻⁶ cm/s | efflux ratio at 120 min (P-gp (rat Mdr1a); IPEC-J2 rMdr1a monolayers): 12.8
SMILES: CC[C@]1(O)C[C@@H]2CN(CCc3c([nH]c4ccccc34)[C@@](C(=O)OC)(c3cc4c(cc3OC)N(C)[C@H]3[C@@](O)(C(=O)OC)[C@H](OC(C)=O)[C@]5(CC)C=CCN6CC[C@]43[C@@H]65)C2)C1 [vinblastine]
efflux ratio (rat Mdr1a): 18.4 | efflux ratio (human MDR1): 12.5

SMILES: COc1ccc(C[C@H](N)C(=O)N[C@H]2[C@@H](O)[C@H](n3cnc4c(N(C)C)ncnc43)O[C@@H]2CO)cc1 [puromycin]
cell survival under selection (IPEC-J2 mock cells [2]): died within three days | cell survival under selection (rMDR1a-transfected cells): survived the treatment

SMILES: OCCN1CCN(CCCN2c3ccccc3Sc3ccc(Cl)cc32)CC1 [perphenazine]
Kp,uu (unbound drug concentration in CNS relative to plasma) [3]: > 2 | efflux ratio (ER) (human P-gp [4]): > 3

SMILES: CN1CCN(CCCN2c3ccccc3Sc3ccc(C(F)(F)F)cc32)CC1 [trifluoperazine]
Kp,uu (unbound drug concentration in CNS relative to plasma) [3]: > 2 | efflux ratio (ER) (human P-gp [4]): > 3

SMILES: O[C@@H](COc1cccc2ncccc12)CN1CCN([C@@H]2c3ccccc3[C@@H]3[C@H](c4ccccc42)C3(F)F)CC1 [zosuquidar]
effect on efflux transport of digoxin (rat Mdr1a P-gp; 0.4 µM zosuquidar): completely blocked | effect on digoxin transport (IPEC-J2 mock cells [5]): did not affect digoxin transport

SMILES: CC[C@@H](C(N)=O)N1CCCC1=O [levetiracetam]
polarized transport (mouse Mdr1a): showed polarized transport | polarized transport (human P-gp [6]): no polarized transport could be observed

SMILES: CNCC[C@@H](Oc1ccccc1C)c1ccccc1 [atomoxetine]
Kp,uu (unbound drug concentration in CNS relative to plasma) [3]: > 2 | efflux ratio (ER) (human P-gp [4]): > 3

Papp A→B at 120 min (P-gp (human MDR1)): 0.25 ± 0.02 ×10⁻⁶ cm/s | Papp B→A at 120 min (P-gp (human MDR1)): 0.37 ± 0.04 ×10⁻⁶ cm/s | efflux ratio at 120 min (P-gp (human MDR1)): 1.4 | Papp at 120 min [7]: 0.25 to 0.44 ×10⁻⁶ cm/s | Papp B→A at 120 min (P-gp (rat Mdr1a); pH 7.4): 0.44 ± 0.11 ×10⁻⁶ cm/s | Papp A→B at 120 min (P-gp (rat Mdr1a); [9]): 0.33 ± 0.12 ×10⁻⁶ cm/s | efflux ratio at 120 min (P-gp (rat Mdr1a); IPEC-J2 rMdr1a monolayers): 1.5 | Papp at 120 min (P-gp (rat Mdr1a); pH 7.4, paracellular permeability, IPEC-J2 rMdr1a monolayers, conclusion summary): ~0.3 ×10⁻⁶ cm/s
SMILES: OC[C@@H](O)[C@@H](O)[C@H](O)[C@H](O)CO [mannitol]

Papp A→B at 120 min (P-gp (human MDR1)): 0.28 ± 0.03 ×10⁻⁶ cm/s | Papp A→B at 120 min ([8]; read-out: PA-B (apparent permeability, apical to basolateral)): 0.05 ± 0.05 ×10⁻⁶ cm/s | Papp B→A at 120 min ([8]; read-out: PB-A (apparent permeability, basolateral to apical)): 0.13 ± 0.17 ×10⁻⁶ cm/s | Papp at 120 min (P-gp (rat Mdr1a); pH 7.4, PB-A (apparent permeability in the efflux direction), late passages (14–16)): 16 ± 1 ×10⁻⁶ cm/s | Papp A→B at 120 min (P-gp (rat Mdr1a); [9]): 0.35 ± 0.03 ×10⁻⁶ cm/s | Papp A→B at 120 min (P-gp (rat Mdr1a); pH 7.4, permeability in the A–B direction, early passages (5–7)): 0.37 ± 0.1 ×10⁻⁶ cm/s | Papp A→B at 120 min (P-gp (rat Mdr1a); pH 7.4, permeability in the A–B direction, late passages (14–16)): 0.68 ± 0.62 ×10⁻⁶ cm/s
SMILES: C[C@H]1O[C@@H](O[C@H]2[C@@H](O)C[C@H](O[C@H]3[C@@H](O)C[C@H](O[C@H]4CC[C@@]5(C)[C@H](CC[C@@H]6[C@@H]5C[C@@H](O)[C@]5(C)[C@@H](C7=CC(=O)OC7)CC[C@]65O)C4)O[C@@H]3C)O[C@@H]2C)C[C@H](O)[C@@H]1O [digoxin]

SMILES: O=C1NC(=O)C(c2ccccc2)(c2ccccc2)N1 [phenytoin]
polarized transport (mouse Mdr1a): showed polarized transport | polarized transport (human P-gp [6]): no polarized transport could be observed
